Test results from ChEMBL document CHEMBL4340509, “Synthesis and evaluation of novel GSK-3β inhibitors as multifunctional agents against Alzheimer's disease” (Eur J Med Chem, 2019).
Calls of active or inactive are those of the source. The calls are words filed in the database; no cut-off is given here.

Tests used:
[1] = biological target: T1, Glycogen synthase kinase-3 beta (Homo sapiens, UniProt P49841); assay: Inhibition of GSK-3beta (unknown origin) using FAM-labeled peptide as substrate preincubated for 10 mins followed by substrate addition by caliper assay
Target sequence in this assay (P49841 whole entry): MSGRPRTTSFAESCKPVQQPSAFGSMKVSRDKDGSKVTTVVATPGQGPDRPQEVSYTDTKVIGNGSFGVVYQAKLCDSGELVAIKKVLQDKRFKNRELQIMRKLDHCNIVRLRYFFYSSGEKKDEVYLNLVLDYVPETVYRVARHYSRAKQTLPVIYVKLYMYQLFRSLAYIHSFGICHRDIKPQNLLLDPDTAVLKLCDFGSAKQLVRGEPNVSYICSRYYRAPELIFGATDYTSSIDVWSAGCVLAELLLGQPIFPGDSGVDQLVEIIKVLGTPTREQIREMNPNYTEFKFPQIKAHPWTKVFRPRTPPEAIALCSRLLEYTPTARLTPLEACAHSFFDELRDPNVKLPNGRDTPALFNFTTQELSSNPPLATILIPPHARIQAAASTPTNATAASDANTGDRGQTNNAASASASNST

[2] = Metal chelating activity assessed as Na+-compound complex formation at 20 uM in the presence of NaCl after 30 mins by UV-vis spectrophotometric analysis
[3] = Metal chelating activity assessed as K+-compound complex formation at 20 uM in the presence of KCl after 30 mins by UV-vis spectrophotometric analysis
[4] = Metal chelating activity assessed as compound-Ca2+ complex formation at 20 uM in the presence of CaCl2 after 30 mins by UV-visible spectrophotometric analysis
[5] = Metal chelating activity assessed as compound-Fe2+ complex formation at 20 uM in the presence of FeSO4 after 30 mins by UV-visible spectrophotometric analysis
[6] = Metal chelating activity assessed as compound-Mg2+ complex formation at 20 uM in the presence of MgCl2 after 30 mins by UV-visible spectrophotometric analysis
[7] = Metal chelating activity assessed as compound-Zn2+ complex formation at 20 uM in presence of ZnCl2 after 30 mins by UV-visible spectrophotometric analysis
[8] = biological target: Amyloid-beta precursor protein (Homo sapiens) (UniProt P05067); assay: Inhibition of human HFIP-pretreated amyloid beta (1 to 42) self aggregation at 40 uM after 24 hrs by ThT-based fluorometric method relative to control
Chain of Amyloid-beta precursor protein (Homo sapiens) (P05067 whole entry): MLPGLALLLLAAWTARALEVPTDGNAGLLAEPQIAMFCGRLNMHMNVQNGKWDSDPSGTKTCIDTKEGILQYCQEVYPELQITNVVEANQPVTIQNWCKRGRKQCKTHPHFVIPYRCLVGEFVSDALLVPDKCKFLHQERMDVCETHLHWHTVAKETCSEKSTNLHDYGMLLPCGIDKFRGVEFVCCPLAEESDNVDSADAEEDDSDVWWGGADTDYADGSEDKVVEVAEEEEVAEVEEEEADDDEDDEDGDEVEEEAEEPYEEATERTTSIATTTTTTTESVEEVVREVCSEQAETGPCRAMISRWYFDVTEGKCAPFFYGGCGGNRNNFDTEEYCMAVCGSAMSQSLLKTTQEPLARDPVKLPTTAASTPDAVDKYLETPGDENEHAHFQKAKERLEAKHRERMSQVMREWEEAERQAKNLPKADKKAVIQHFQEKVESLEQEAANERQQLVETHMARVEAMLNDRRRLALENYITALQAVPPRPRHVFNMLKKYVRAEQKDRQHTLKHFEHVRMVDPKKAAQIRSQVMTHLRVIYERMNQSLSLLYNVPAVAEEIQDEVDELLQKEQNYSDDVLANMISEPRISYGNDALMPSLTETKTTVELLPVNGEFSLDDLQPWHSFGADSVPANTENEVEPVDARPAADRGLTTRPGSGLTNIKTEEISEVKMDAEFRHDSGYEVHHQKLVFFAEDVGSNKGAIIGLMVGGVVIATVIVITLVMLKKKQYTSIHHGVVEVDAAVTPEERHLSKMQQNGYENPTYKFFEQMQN

[9] = biological target: Amyloid-beta precursor protein (Homo sapiens) (UniProt P05067); assay: Disaggregation of HFIP-pretreated human amyloid beta (1 to 42) preformed fibrils at 40 uM after 24 hrs by ThT-based fluorometric method relative to control
[10] = Inhibition of Cu2+-induced HFIP pretreated human amyloid beta (1 to 42) aggregation at 40 uM measured after 24 hrs by ThT-based fluorescence assay relative to control
[11] = Disaggregation of Cu2+ induced human HFIP-pretreated amyloid beta (1 to 42) preformed fibrils at 40 uM measured after 24 hrs by ThT-based fluorescence assay relative to control
[12] = Metal chelating activity assessed as inhibition of Cu(II)/ascorbate-induced ROS production by measuring fluorescence intensity at 100 uM measured at 20 secs interval for 1000 secs by fluorescence assay (reference value: 10 to 52)
[13] = Antioxidant activity assessed as ABTS radical scavenging activity incubated for 6 mins; format: functional
[14] = Potency index, ratio of trolox IC50 to test compound IC50 for ABTS radical scavenging activity; format: functional
SH-SY5Y [15] = assay: Cytotoxicity against human SH-SY5Y cells measured after 24 hrs by MTT assay; format: cell-based
PC-12 [16] = assay: Cytotoxicity against rat PC12 cells measured after 24 hrs by MTT assay; format: cell-based; details: PC-12, 24 h
SH-SY5Y [17] = assay: Neuroprotective activity against H2O2-induced oxidative damage in human SH-SY5Y cells assessed as increase in cell viability measured after 24 hrs by MTT assay; format: functional, cell-based
SH-SY5Y [18] = assay: Neuroprotective activity against H2O2-induced oxidative damage in human SH-SY5Y cells assessed as cell viability at 10 uM measured after 24 hrs by MTT assay relative to control; format: functional; details: read-out: Activity
PC-12 [19] = assay: Neuroprotective activity against H2O2-induced oxidative damage in rat PC12 cells assessed as cell viability at 10 uM measured after 24 hrs by MTT assay relative to control; format: functional; details: PC-12, 24 h, read-out: Activity
SH-SY5Y [20] = assay: Neuroprotective activity against amyloid beta (1 to 42) (unknown origin)-induced cytotoxicity in SH-SY5Y cells assessed as cell viability at 2 uM measured after 24 hrs by MTT assay (reference value: 78%); format: functional; details: Homo sapiens
[21] = biological target: T1, Glycogen synthase kinase-3 beta; assay: Inhibition of GSK3bbeta in human SH-SY5Y cells assessed as reduction in human amyloid beta (25 to 35) peptide-induced tau hyperphosphorylation at Ser396 residue at 25 uM preincubated for 1 hr followed by amyloid beta-stimulation and measured after 6 hrs by Western blot analysis relative to control; format: cell-based
Target sequence in this assay (P49841 whole entry, looked up): as the sequence (P49841 whole entry) above

SH-SY5Y [22] = assay: Cytotoxicity against human SH-SY5Y cells at 2 uM in the presence of CuCl2 measured after 24 hrs by MTT assay; format: cell-based
SH-SY5Y [23] = assay: Neuroprotective activity against Cu2+-mediated amyloid beta (1 to 42) (unknown origin)-induced cytotoxicity in human SH-SY5Y cells assessed as cell viability at 2 uM measured after 24 hrs by MTT assay (reference value: 71%); format: functional; details: read-out: Activity
[24] = biological target: T1, Glycogen synthase kinase-3 beta; assay: Inhibition of GSK3bbeta in human SH-SY5Y cells assessed as reduction in human amyloid beta (25 to 35) peptide-induced tau hyperphosphorylation at Ser396 residue preincubated for 1 hr followed by amyloid beta-stimulation and measured after 6 hrs by Western blot analysis; format: cell-based
Target sequence in this assay (P49841 whole entry, looked up): as the sequence (P49841 whole entry) above

[25] = Metal chelating activity assessed as compound-Cu2+ complex formation by measuring blue shift in maximum absorption at 20 uM in presence of CuCl2 after 30 mins by UV-visible spectrophotometric analysis (reference value: 248 nanometer)
[26] = Metal chelating activity assessed as compound-Al3+ complex formation by measuring blue shift in maximum absorption at 20 uM in the presence of AlCl3 after 30 mins by UV-visible spectrophotometric analysis (reference value: 248 to 407 nanometer)
[27] = Potency index, ratio of test compound effect to clioquinol effect for disaggregation of Cu2+ induced human HFIP-pretreated amyloid beta (1 to 42) preformed fibrils

Nc1ncc(-c2ccccc2)cc1/N=C/c1ccnc(NC(=O)C2CC2)c1
IC50 [1]: 0.049 µM
Activity [2]: inactive
Activity [3]: inactive
Activity [4]: inactive
Activity [5]: inactive
Activity [6]: inactive
Activity [7]: inactive
inhibition [8]: inactive
Activity [9]: inactive
inhibition [10]: 63%
Activity [11]: 66.1%
Flu intensity [12]: 53 to 68
IC50 [13]: 7.3 µM
Ratio IC50 [14]: 2 to 4
IC50 (SH-SY5Y [15]): 158 µM
IC50 (PC-12 [16]): 83.2 µM
Activity (SH-SY5Y [17]): Dose-dependent effect
viability at 10 µM (SH-SY5Y [18]): 92.7%
viability at 10 µM (PC-12 [19]): 71.8%
Activity (SH-SY5Y [20]): inactive
inhibition [21]: < 50%
Activity (SH-SY5Y [22]): Non-Toxic
viability at 2 µM (SH-SY5Y [23]): 93%
inhibition [24]: Dose-dependent effect
Activity [25]: 244 nm
Activity [26]: 242 to 339 nm
Ratio [27]: 2
